These results are taken from ChEMBL document CHEMBL1201862, “PubChem BioAssay data set” (2004).

Targets include Cytochrome P450 2D6 (Homo sapiens, UniProt P10635); Cytochrome P450 3A4 (Homo sapiens, UniProt P08684); Cytochrome P450 2C9 (Homo sapiens, UniProt P11712).
A further series deals with T1, Cysteine protease ATG4B (Homo sapiens, UniProt Q9Y4P1).
T1 sequence (Q9Y4P1 whole entry): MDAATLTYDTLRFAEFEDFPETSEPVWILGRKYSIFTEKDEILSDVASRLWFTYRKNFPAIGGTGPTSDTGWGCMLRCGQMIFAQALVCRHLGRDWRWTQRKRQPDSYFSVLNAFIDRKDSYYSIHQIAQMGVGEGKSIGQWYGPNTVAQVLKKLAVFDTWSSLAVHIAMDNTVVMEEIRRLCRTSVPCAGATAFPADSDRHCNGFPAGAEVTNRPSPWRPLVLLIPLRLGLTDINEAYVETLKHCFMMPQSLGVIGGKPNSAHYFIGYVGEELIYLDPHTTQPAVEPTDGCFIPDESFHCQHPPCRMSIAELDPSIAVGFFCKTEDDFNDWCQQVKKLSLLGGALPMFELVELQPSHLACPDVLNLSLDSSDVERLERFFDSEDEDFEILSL
The class given is functional.

Another series concerns the target Phospholipase A2 (Homo sapiens, UniProt P04054). The class given is functional.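 Note: confirmatory dose-response counterscreen on phospholipase A2, testing hits that came from an ultra-high-throughput screen for ATG4B inhibitors.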
The subject of series [1] is BJ. As to the kind of experiment: cytotoxicity toward BJ-TERT fibroblasts, dose response, cell-based, RAS-independent, luminescence (AID 1933). The class given is functional. Particulars: Homo sapiens.
The subject of series [2] is BJ. As to the kind of experiment: cells. In kind it is functional, cell-based. Particulars: Homo sapiens.
The test system of series [3] is BJ. As to the kind of experiment: cytotoxicity toward BJ-TERT-LT-ST fibroblasts, dose response, cell-based, RAS-independent, luminescence (AID 1935).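 Note: BJ fibroblasts immortalized with TERT plus LT and ST oncogenes.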 Particulars: Homo sapiens. In kind it is functional.
The nature of series [4]: cytotoxicity toward DRD oncogenic fibroblasts, dose response, cell-based, non-viral oncogenic, luminescence (AID 1934). The class given is functional. As to conditions: Homo sapiens.
The subject of series [5] is Vero. As to the kind of experiment: cells. The class given is functional, cell-based. As to conditions: Chlorocebus sabaeus.
In series [6] the test system is Vero. The series is described as follows: cells. In kind it is functional. Particulars: Chlorocebus sabaeus.
Series [7] in a line: HEp-2 cell cytotoxicity, dose response, cytotoxicity control for RSV inhibitor project, HTS (AID 2410). The class given is functional. As to conditions: human respiratory syncytial virus.
The test system of another series is HEK293. As to the kind of experiment: inhibitors of LMP1-driven NF-kB reporter, dose response, cell-based, HEK293, luciferase, cherry-pick (AID 588343). As to conditions: Homo sapiens. In kind it is functional.
For series [8], the target named is T2, E3 ubiquitin-protein ligase XIAP (Homo sapiens, UniProt P98170). As to the kind of experiment: Counter Screen using XIAP-Bir3 for Chemical Antagonists of Bir1/2 domains of IAP-family anti-apoptotic proteins. [Related pubchem assays (depositor defined):AID1018, AID1449, AID1514, AID1638, AID1749, AID1750, AID488957, AID488963].
T2 sequence (P98170 whole entry): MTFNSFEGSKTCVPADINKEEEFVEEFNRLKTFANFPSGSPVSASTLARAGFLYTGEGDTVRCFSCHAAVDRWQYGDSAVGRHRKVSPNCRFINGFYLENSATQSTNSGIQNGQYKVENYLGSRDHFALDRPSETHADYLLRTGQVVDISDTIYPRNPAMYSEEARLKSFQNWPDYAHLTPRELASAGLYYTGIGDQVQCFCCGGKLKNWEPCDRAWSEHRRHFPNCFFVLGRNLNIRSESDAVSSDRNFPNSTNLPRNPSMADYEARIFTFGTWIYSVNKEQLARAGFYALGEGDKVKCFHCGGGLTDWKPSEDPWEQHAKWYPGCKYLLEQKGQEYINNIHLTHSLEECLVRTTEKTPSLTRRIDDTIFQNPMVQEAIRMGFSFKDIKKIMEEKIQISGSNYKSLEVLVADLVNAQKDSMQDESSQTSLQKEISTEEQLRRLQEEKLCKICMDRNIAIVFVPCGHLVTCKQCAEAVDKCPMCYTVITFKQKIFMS
The target in series [9] is T2, E3 ubiquitin-protein ligase XIAP. As to the kind of experiment: XIAP antagonists, biochemical, IAP family, fluorescence polarization (AID 1018). The class given is functional.
For series [10], the target named is T3, Calpain-2 catalytic subunit (Sus scrofa, UniProt P43367).
T3 sequence (P43367 whole entry): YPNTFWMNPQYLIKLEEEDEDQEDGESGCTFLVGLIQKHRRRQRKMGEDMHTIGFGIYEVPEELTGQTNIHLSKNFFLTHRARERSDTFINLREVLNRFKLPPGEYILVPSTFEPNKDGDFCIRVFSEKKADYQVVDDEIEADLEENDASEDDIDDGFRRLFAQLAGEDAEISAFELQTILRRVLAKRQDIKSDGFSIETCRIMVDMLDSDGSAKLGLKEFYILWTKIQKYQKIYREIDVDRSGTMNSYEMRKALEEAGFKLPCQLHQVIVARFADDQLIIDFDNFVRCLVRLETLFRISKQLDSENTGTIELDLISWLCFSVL
The series is described as follows: pig calpain II inhibitor potency, dose response, biochemical, fluorogenic peptide substrate (AID 1420). The class given is functional.

In series [11] the target is T4, Tyrosine-protein phosphatase non-receptor type 7 (Homo sapiens, UniProt P35236).
T4 sequence (P35236 whole entry): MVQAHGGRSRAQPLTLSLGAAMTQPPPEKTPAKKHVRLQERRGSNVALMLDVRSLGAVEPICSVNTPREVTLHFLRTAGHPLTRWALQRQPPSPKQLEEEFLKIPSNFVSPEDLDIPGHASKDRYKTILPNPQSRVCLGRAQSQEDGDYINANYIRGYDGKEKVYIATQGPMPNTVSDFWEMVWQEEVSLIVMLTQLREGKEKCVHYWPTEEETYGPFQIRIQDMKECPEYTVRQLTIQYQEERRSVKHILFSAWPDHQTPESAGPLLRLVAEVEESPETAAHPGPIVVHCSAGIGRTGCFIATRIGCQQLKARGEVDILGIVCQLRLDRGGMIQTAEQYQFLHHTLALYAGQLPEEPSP
As to the kind of experiment: HePTP (PTPN7) phosphatase inhibitor potency, SAR follow-up, biochemical, set 2 (AID 449736). In kind it is functional.

Series [12] can be described thus: inhibitors of firefly luciferase expression or activity, dose response, H4 neuroglioma cells, luminescence (AID 1990). In kind it is functional, cell-based.
Series [13] concerns the target Peroxisome proliferator-activated receptor gamma/Nuclear receptor coactivator 1 (Homo sapiens, UniProt P37231). As to the kind of experiment: TR-FRET dose response biochemical High Throughput Screening assay for agonists of the steroid receptor coactivator 1 (SRC-1) recruitment by the peroxisome proliferator-activated receptor gamma (PPAR gamma): non-selective agonists. [Related pubchem assays (depositor defined):AID1300, AID1808, AID504735, AID631]. In kind it is protein assay.

Series [14] is described as follows: Luminescence Cell-Based Dose Response HTS to Identify Inhibitors of 5'UTR Stem-Loop Driven Prion Protein mRNA Translation in H4 Neuroglioblastoma Cells. [Related pubchem assays: 1827 (Project Summary), 1813 (Primary HTS)]. The class given is functional.
Series [15] has as its target Peroxisome proliferator-activated receptor gamma/Nuclear receptor coactivator 3 (Homo sapiens, UniProt P37231). The series is described as follows: TR-FRET dose response biochemical High Throughput Screening assay for agonists of the steroid receptor coactivator 3 (SRC-3) recruitment by the peroxisome proliferator-activated receptor gamma (PPAR gamma): non-selective agonists. [Related pubchem assays: 1301 (Confirmation screen.), 1048 (Primary screen.)]. The class given is functional. Background: TR-FRET usually uses a lanthanide donor and a delayed reading to cut background.

Series [16] in a line: inhibitors of SNCA 5'UTR-driven reporter translation, confirmation, H4 neuroglioma cells, luminescence (AID 1988). The class given is functional, cell-based.
In series [17] the target is Peroxisome proliferator-activated receptor gamma/Nuclear receptor coactivator 2 (Homo sapiens, UniProt P37231). As to the kind of experiment: TR-FRET dose response biochemical High Throughput Screening assay for agonists of the steroid receptor coactivator 2 (SRC-2) recruitment by the peroxisome proliferator-activated receptor gamma (PPAR gamma): non-selective agonists. [Related pubchem assays: 1297, 1032 ]. In kind it is functional.

The target in series [18] is Voltage-dependent T-type calcium channel subunit alpha-1H (Homo sapiens, UniProt O95180). In kind it is functional.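 Note: channel activity triggered by adding a high calcium stimulation buffer.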
Voltage-dependent T-type calcium channel subunit alpha-1H, sequence (O95180 whole entry): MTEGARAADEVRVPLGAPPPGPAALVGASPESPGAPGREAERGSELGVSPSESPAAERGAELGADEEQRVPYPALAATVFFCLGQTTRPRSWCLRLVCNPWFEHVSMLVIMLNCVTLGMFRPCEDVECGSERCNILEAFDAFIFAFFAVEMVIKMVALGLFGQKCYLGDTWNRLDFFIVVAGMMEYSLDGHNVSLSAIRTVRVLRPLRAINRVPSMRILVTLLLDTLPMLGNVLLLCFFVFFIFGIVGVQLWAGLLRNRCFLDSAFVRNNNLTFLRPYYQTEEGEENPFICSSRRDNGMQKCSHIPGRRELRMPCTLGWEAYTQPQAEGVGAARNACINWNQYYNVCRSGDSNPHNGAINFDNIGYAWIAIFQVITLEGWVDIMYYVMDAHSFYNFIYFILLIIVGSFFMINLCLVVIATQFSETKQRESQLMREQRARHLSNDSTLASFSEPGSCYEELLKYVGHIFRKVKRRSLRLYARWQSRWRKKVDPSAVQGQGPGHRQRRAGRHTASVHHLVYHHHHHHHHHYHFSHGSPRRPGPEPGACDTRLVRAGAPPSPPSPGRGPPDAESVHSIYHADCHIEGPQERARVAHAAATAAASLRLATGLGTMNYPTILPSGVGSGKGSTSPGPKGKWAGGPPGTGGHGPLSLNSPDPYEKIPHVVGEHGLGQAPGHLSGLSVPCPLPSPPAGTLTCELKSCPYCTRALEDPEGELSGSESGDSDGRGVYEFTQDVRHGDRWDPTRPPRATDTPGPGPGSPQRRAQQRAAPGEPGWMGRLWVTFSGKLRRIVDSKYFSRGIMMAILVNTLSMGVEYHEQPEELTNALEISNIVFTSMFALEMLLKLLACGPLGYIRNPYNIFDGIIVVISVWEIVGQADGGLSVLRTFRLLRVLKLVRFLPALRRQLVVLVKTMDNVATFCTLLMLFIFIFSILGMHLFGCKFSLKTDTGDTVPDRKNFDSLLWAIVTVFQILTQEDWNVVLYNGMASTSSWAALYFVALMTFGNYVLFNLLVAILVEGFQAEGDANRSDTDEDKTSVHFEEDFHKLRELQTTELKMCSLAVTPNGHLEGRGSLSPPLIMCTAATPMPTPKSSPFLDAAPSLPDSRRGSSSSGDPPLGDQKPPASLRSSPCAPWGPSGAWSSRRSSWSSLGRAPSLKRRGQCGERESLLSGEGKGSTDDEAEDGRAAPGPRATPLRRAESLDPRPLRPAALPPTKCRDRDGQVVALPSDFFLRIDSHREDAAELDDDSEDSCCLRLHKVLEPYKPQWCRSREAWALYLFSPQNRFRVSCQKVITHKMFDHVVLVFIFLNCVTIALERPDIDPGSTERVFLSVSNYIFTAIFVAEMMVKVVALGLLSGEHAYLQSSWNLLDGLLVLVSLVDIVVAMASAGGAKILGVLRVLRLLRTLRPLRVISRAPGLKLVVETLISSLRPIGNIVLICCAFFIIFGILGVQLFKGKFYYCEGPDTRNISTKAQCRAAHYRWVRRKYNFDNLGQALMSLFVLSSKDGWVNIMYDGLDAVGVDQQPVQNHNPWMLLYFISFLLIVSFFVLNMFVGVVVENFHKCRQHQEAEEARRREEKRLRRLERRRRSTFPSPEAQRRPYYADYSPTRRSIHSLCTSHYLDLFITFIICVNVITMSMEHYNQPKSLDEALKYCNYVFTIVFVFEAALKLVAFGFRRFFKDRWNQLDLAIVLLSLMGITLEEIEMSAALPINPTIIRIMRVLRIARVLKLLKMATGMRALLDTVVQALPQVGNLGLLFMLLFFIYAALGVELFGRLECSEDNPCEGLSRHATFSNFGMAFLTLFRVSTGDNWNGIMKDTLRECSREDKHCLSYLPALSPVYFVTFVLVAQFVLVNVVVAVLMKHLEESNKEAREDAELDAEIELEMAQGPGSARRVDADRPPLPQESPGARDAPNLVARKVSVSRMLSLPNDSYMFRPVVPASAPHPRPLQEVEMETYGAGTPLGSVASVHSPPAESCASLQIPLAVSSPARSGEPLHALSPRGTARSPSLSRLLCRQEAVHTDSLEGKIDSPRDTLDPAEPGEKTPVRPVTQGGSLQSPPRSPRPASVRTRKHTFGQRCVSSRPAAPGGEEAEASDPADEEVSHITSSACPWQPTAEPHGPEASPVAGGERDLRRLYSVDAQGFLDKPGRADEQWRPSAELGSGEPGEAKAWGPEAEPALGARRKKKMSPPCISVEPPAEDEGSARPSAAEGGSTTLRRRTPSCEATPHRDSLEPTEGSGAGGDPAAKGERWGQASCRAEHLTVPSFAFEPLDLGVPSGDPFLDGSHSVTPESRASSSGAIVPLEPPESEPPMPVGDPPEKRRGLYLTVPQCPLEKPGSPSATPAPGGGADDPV
Another series deals with T5, Cytochrome P450 1A2 (Homo sapiens, UniProt P05177).
T5 sequence (P05177 whole entry): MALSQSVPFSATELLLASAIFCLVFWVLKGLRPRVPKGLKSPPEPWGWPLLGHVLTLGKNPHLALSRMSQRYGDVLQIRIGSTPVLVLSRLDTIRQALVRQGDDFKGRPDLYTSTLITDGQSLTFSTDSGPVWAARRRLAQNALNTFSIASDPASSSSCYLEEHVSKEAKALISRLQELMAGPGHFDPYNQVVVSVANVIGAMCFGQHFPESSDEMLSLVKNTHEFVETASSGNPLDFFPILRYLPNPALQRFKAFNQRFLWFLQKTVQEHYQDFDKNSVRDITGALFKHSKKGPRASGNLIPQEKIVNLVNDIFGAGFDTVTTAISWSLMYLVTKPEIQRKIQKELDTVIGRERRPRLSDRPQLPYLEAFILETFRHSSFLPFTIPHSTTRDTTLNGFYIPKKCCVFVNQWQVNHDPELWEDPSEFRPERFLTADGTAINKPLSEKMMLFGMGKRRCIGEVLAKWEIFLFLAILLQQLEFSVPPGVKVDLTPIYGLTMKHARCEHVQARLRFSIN

Active and inactive are the calls of the source.

Cytochrome P450 3A4, sequence (P08684 whole entry): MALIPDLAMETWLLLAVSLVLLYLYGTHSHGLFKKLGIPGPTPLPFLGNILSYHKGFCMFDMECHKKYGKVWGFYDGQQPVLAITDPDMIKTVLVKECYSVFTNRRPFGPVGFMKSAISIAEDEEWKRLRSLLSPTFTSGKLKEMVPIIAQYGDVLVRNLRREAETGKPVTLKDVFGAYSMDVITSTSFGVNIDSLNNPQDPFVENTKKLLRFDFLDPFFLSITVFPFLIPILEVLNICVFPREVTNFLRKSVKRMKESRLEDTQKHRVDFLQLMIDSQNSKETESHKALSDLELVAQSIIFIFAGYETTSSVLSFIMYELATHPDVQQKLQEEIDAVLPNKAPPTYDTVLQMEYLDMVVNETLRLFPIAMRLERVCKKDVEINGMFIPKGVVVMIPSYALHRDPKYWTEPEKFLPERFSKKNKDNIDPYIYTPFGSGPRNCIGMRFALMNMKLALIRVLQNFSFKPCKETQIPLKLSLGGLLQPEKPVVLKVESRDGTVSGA
Cytochrome P450 2D6, sequence (P10635 whole entry): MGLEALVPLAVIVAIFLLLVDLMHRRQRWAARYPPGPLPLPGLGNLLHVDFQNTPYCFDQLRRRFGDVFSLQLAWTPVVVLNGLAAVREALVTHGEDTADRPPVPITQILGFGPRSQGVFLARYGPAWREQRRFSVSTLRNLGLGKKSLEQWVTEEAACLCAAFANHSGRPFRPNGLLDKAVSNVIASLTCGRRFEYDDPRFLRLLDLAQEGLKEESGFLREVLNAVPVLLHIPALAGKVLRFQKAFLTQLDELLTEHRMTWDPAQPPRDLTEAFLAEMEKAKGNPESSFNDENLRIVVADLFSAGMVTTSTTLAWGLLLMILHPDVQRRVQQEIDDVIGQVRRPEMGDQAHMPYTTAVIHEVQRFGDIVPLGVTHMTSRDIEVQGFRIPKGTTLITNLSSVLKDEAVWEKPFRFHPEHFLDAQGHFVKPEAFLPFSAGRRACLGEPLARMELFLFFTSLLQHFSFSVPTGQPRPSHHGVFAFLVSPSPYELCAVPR
Phospholipase A2, sequence (P04054 whole entry): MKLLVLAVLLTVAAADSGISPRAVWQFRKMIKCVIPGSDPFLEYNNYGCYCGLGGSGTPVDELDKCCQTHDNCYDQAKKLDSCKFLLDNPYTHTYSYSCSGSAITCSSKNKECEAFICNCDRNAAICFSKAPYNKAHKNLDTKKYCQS
Cytochrome P450 2C9, sequence (P11712 whole entry): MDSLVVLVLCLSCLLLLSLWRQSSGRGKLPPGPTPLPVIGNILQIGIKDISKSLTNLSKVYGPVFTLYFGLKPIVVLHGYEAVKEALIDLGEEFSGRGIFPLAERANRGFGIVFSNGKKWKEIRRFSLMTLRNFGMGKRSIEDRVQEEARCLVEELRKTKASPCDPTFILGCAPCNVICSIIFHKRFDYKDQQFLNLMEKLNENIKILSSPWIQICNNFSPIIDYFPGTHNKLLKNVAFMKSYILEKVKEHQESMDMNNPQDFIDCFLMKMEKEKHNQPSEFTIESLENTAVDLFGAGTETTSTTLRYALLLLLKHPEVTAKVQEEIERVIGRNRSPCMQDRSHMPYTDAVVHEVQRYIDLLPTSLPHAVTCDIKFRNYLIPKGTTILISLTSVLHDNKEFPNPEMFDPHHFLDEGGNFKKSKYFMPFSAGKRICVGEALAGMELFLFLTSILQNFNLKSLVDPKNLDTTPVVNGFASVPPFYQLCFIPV

For `Cn1c(=O)n(C)c2cc([N+](=O)[O-])c(N3CCN(C(=O)c4ccccc4Cl)CC3)cc21`, the results for the half-maximal activity concentration (AC50) on Cytochrome P450 2D6 and at Cytochrome P450 3A4 were 0.0355 µM (inconclusive) and “inconclusive”, respectively.

`CC1CCc2sc(C(=O)N3CCC(C(N)=O)CC3)cc2C1` (stereo unspecified): the IC50 at Cysteine protease ATG4B is 13.2 µM (active); at Phospholipase A2, 9.91 µM (active).

`Cc1ccc(N(Cc2cc(O)nc3ccccc23)C(=O)CCl)cc1`: the EC50 was 1.19 µM (inconclusive) in the series on BJ [1], 8.7 µM (active) in the series with BJ [2], 8.14 µM (inconclusive) in the series on BJ [3] and 4.97 µM (inconclusive) in series [4]. For the same compound, the IC50 in the series on Vero [5] was > 25 µM (active). For the same compound, the CC50 with Vero [6] was 6.57 µM (active).

Take `Clc1ccc(COn2c(-c3ccccc3)nc3ccccc32)cc1`: the AC50 entry on Cytochrome P450 3A4 was “inconclusive”.

With `C#CCn1c(S(=O)(=O)Cc2ccc(F)cc2)nc(-c2ccccc2)c1-c1ccccc1`, the 50% cytotoxic concentration (CC50) is 3.47 µM (active) in [7] and 22.2 µM (active) in the series on Vero [6]. Besides, the AC50 in the series with HEK293 is 21.7 µM (active). Also, the IC50 in the series on Vero [5] is 3.94 µM (active); in “cells”, 4.97 µM (active).

With `CCCCSc1nnc2c(n1)OC(C(=O)c1ccccc1)Nc1ccccc1-2` (stereo unspecified), the IC50 was > 100 µM (inactive) in [8], > 50 µM (not active) in series [9] and > 50 µM (not active) in series [10].

As for `Nc1c(C(=O)N2CCOCC2)sc(=S)n1-c1ccc(F)c(Cl)c1`, the IC50 in series [11] is > 100 µM (inactive).

As for `Cc1ccccc1-c1nnc(S)n1/N=C/c1ccc(-c2ccccc2Br)o1`, the EC50 was 18.7 µM (active) in series [12]; 29.4 µM (inactive) in [13]; 13.9 µM (active) in [14]; > 79.4 µM (not active) in [15]; 11.7 µM (active) in [16]; 28.6 µM (not active) in series [17]. Moreover, in the series on Vero [5], the IC50 is 2.91 µM (active).

`O=c1[nH]c2ccccc2n1CCCN1CCN(C(c2ccccc2)c2ccccc2)CC1` [OXATOMIDE]: the EC50 in series [18] was 5.15 µM (active). Besides, the results for the concentration at half-maximal activity (AC50) on Cytochrome P450 1A2, on Cytochrome P450 2C9 and on Cytochrome P450 3A4 were 25.1 µM (inconclusive), 7.94 µM (inconclusive) and “inconclusive”, respectively.

In general, AC50 refers to the concentration at which the activity in the assay is half-maximal. As a reminder, the IC50 is the concentration at which inhibition is half-maximal. As usually defined, the EC50 is the midpoint of the concentration-response curve. In general, CC50 refers to the concentration at which the toxic effect on the cells reaches its halfway point.
